Experimental data reported in patent US20150238466A1, “LIM KINASE INHIBITORS” (RAMOT AT TEL-AVIV UNIVERSITY LTD., priority 2012, published 2015).
Values joined by “and” are separate entries in the source; they are usually repeats but may differ in a detail not shown here. Equal entries are not always repeated.

Columns and labels:
LIMK = assay: Western blot of p-cofilin in NF1−/− MEFs; type: cell-based, mouse
Protocol: FIG. 3A-B presents an immunoblot and graphical presentation of immunoblots. […] Normalization was performed using beta-tubulin. Average inhibition was calculated as a percentage of control (mean±SD, n=3,*P<0.05; **P<0.01 compared to control (Student's t-test)).
NF1−/− MEFs were plated at a density of lx 10^5 or 5×10^5 cells in 6-well plates or 10-cm dishes, respectively, and were allowed to grow overnight in a medium containing 10% FCS. […] The cells were then lysed with solubilization buffer (50 mMTris-HCl at a pH of 7.6, 20 mM MgCl2, 200 mM NaCl, 0.5% NP40, 1 mM Dithiothreitol, and protease inhibitors), and the lysate (50 μg) was subjected to SDS-PAGE and then immunoblotted with one of the following antibodies: anti-p-cofilin (1:1000), anti-cofilin (1:1000), anti-β-tubulin (1:500). The immunoblots were then exposed to peroxidase-goat anti-rabbit IgG (1:2500), and protein bands were visualized by enhanced chemiluminescence and quantified by densitometry (EZ-Qant). Rabbit anti-cofilin and p-cofilin (Ser3) were from Cell Signaling Technolgy (Beverly, Mass.); mouse anti-β-tubulin antibody was from Sigma-Aldrich; peroxidase-goat anti-mouse IgG and peroxidase-goat anti-rabbit IgG were from Jackson ImmunoResearch Laboratories (West Grove, Pa.).
It has been previously shown that the levels of phosphorylated cofilin (p-cofilin) are high in NF1^−/− Mouse Embryonic Fibroblasts (MEFs). Thus, these cells were used herein to examine the impact of compound 1 on phosphorylation of cofilin.
The cells were lysed and subjected to immunoblotting with anti-p-cofilin, anti-cofilin, and anti-β-tubulin (as loading control) antibodies. […] These findings, taken together, support the predicted LIMK model as well as the predicted LIMK inhibitor.

NF1−/− MEFs [1] = assay: Growth (cell number) of NF1−/− MEFs, direct counting after 5 days; type: cell-based, mouse; conditions: for inhibition at 5 µM / inhibition at 25 µM: Mus musculus
Protocol: Cells were directly counted and typical inhibition curves are shown (means±SEM, n=9; **P<0.01, ***P<0.001).
The cells were plated in 24-well plates at a density of 5×10^3 cells per well.

NF1−/− MEFs [2] = assay: Actin stress fibers, rhodamine-phalloidin staining of NF1−/− MEFs; type: cell-based, mouse
Protocol: MEFs were seeded on glass coverslips in 6-well plates at the densities of 2.5×10^4 cells per well. […] Cells were further incubated for 24 hours and were then fixed, permeabilized, and washed. Rhodamine-labeled phalloidin was added for 30 minutes and the slides were then washed, mounted, and imaged. F-actin was visualized and then photographed under an LSM510 confocal microscope (×63 objective) fitted with rhodamine filters. Statistical analysis was performed by counting 100 cells from each slide, with or without stress fibers, under an Olympus fluorescence microscope.

NF1−/− MEFs [3] = assay: Scratch-induced (wound-healing) migration assay, NF1−/− MEFs; type: cell-based, mouse; conditions: within 3 hours, compound 1 at 50 μM; untreated cells 50%
Protocol: (§1) FIG. 6 is a graph showing gap width in NF1−/− MEFs cells examined (mean±SD, n=9), expressed as a percentage of the gap at the time of scratching.
(§2) Scratch-induced migration assay was performed as described in Goldberg et al.. Briefly, NF1-knockout and wt MEFs were seeded on collagen-covered 35-mm plates at a cell density of 1.5×10^5 per plate. […] Three areas were scratched in each plate, creating three gaps of similar widths. The media and the inhibitors were then replenished. Immediately thereafter, and at the time points indicated in the Examples section, phase-contrast images of the plates were obtained with a CCD camera connected to an Olympus fluorescence microscope (×10 objective). The region imaged was marked at time “zero” in order to enable photographing the same area at the different time points, and so that a specific population of migrating cells may be examined. The widths of the gaps treated with the inhibitor were measured at different time points, using the Image-Pro Plus software. […] Statistical analysis of the results was performed, of either the mean gap width (in arbitrary units) of compound 1-treated cells relative to the control at different time points (means±SD, n=9) or the percentage of migration, calculated as the width of the gap still open at the final time point, expressed as a percentage of the gap size at zero time for each treatment (means±SD, n=9). […]

wt MEFs = assay: Scratch-induced (wound-healing) migration assay, wt MEFs; type: cell-based, mouse; conditions: compound 1 at 50 μM
Protocol: as §1, §2

NF1−/− MEFs [4] = assay: Anchorage-independent growth in soft agar; type: cell-based, mouse; conditions: 25 and 50 μM, 14 days
Protocol: FIG. 7B is a graph showing a statistical analysis of the anchorage-independent growth experiment. Columns, mean (n=5); bars, SD; *P<0.001.
Noble agar 2% (Difco, Detroit, Mich.) was mixed with DMEM×2 medium, containing 10% FCS, 4 mM L-glutamine, 200 units/mL penicillin, and 0.2 mg/mL streptomycin. The mixture (50 μL) was poured into 96-well plates to provide the agar base at a final agar concentration of 1%. […] The cells were incubated for 14 days and then stained for 4 hours with 1 mg/mL 344,5-dimethylthiazol-2-yl)-2 5-diphenyltetrazolium bromide (MTT; Sigma-Aldrich, St. Louis, Mo.), which stains active mitochondria in living cells, and the colonies were imaged. Colonies larger than 0.16 mm^2 (mean±SD, n=5) were counted using Image-Pro Plus software (Media Cybernetics, Carlsbad, Calif.). The average percentage of colonies in each group (means±SD, n=5) was calculated by dividing the number of colonies of a particular treatment and specific group size by the number of colonies of the same size in the corresponding untreated control group.

U87-glioblastoma = assay: Growth inhibition of U87 cells; type: cell-based; conditions: Homo sapiens, U-87 MG, 120 h; U87, 5 days; read-out: IC50, reduction of cell number
Text: (§3) Cells were directly counted and typical inhibition curves are shown.

ST-88-swanoma = assay: Growth inhibition of ST-88 cells; type: cell-based; conditions: 120 h; ST-88, 5 days; read-out: IC50, reduction of cell number
Text: as §3

[5] = test system: Panc-1-pancreatic cancer tumor cell line; assay: Growth inhibition of Panc-1 cells; type: cell-based; conditions: Homo sapiens, 120 h; Panc-1, 5 days; read-out: IC50, reduction of cell number
Text: as §3

[6] = In-vivo toxicity, single oral dose in nude mice; conditions: single oral dose 20-100 mg/kg in 0.5% CMC, followed for 2 weeks
Text: The mice were weighted and followed for 14 days after the administration. Average weight of treated mice is presented. (n=2).
The mice were followed for 2 weeks to measure toxic effects.

Panc-1 tumor = assay: Panc-1 human pancreatic tumor growth in nude mice; type: in vivo, mouse; conditions: for average tumor size: control group 745
Text: FIG. 11A—Panc-1 cells were implanted s.c. in the right flank of athymic nude mice. After 7 days, the mice were separated randomly into one vehicle-treated control group and two T-56-LIMKi groups (n=8). […] Tumor volumes (means±S.E.M, * p-value<0.05) during the experiment period are shown. FIG. 11B—The mice were weighted at indicated time point. Presented are average weights of each group (grams±stdev).
Nude CD1-Nu mice (6 weeks old) were housed in barrier facilities on a 12-h light/dark cycle. Food and water were supplied ad libitum. On day zero, 5×10^6 Panc-1 cells in 0.1 ml of PBS were implanted s.c. just above the right femoral joint When tumor volumes reached values of 0.06-0.07 cm3 (day 0 of compound-1 treatment), the mice were randomly separated into three groups. Control mice received vehicle; compound-1-treated mice received 30 or 60 mg/kg T56-LIMKi (oral administration of 0.1 ml with 0.5% CMC daily). Tumor volume was calculated as (length×width)×[(length+width)÷2].
The effects of compound ion human pancreatic tumor growth in nude mice was examined, i.e., on cell transformation in an in vivo model. Mice received 5×10^6 cells subcutaneously (s.c.) in the right flank. […] By day 31, 4 out of 8 tumors in the 60 mg/kg treated group disappeared completely.

CC(C)C(=O)Nc1ncc(-c2cc(C(F)F)nn2-c2c(Cl)cccc2Cl)s1 [BMS-5, N-{5-(2-(2,6-dichloro-phenyl)-5-difluoromethyl-2H-pyrazol-3-yl)-thiazol-2-yl}-isobutyramide, reference compound]
reduction of p-cofilin level, potency compared with compound 1 (LIMK; similar experiment, 2 hours, NF1−/− MEFs): more potent than compound 1

Cc1cc(C(=O)Nc2cccc(C(=O)Nc3cccc(C(F)(F)F)c3)c2)on1 [compound 1]
inhibition of cofilin phosphorylation by LIMK (LIMK; 50 μM): about 50% | amounts of total cofilin (LIMK; 2 hours, NF1−/− MEFs): did not affect | level of p-cofilin (LIMK; compound 1 at 10-50 μM, 2 hours, serum-starved NF1−/− MEFs): reduced | inhibition at 5 µM (NF1−/− MEFs [1]; compound 1 at 5 μM in the absence of FTS): 13% | inhibition at 5 µM (NF1−/− MEFs [1]; compound 1 at 5 μM in the presence of FTS): 60% | inhibition at 25 µM (NF1−/− MEFs [1]; compound 1 at 25 μM in the absence of FTS): 51% | inhibition at 25 µM (NF1−/− MEFs [1]; compound 1 at 25 μM in the presence of FTS): 85.5% | reduction in cell proliferation (NF1−/− MEFs [1]; compound 1 at 50 μM): 70% | decrease in the number of cells exhibiting stress fibers (NF1−/− MEFs [2]; compound 1 at 50 μM): 26%±7.7% and 30% | gap closed (NF1−/− MEFs [3]): 10% | mobility of wt MEFs (wt MEFs): not affected | colony formation in soft agar (NF1−/− MEFs [4]): inhibited in a dose-dependent manner | IC50 (U87-glioblastoma): ~25 µM | IC50 (ST-88-swanoma): ~25 µM | IC50 [5]: ~25 µM | body weight [6]: no weight lost was detected | toxic effects (appearance of mice) [6]: looked normal at all doses | toxic effects (appearance of mice) ([6]; listed as T56-LIMKi): not toxic | significance of the reduction of tumor volume (Panc-1 tumor; 60 mg/kg daily oral): significant from day 18 | mouse weight (Panc-1 tumor; 30 or 60 mg/kg daily oral): not affected | signs of cytotoxicity (Panc-1 tumor; 30 or 60 mg/kg daily oral): no signs of cytotoxicity | average tumor size (Panc-1 tumor; Day 22, 30 mg/kg daily oral): 488 mm^3 | average tumor size (Panc-1 tumor; Day 22, 60 mg/kg daily oral): 268 mm^3 | tumors that disappeared completely (Panc-1 tumor; by day 31, 60 mg/kg daily oral): 4 out of 8

CC(C)=CCC/C(C)=C/CC/C(C)=C/CSc1ccccc1C(=O)O [FTS, S-trans, trans-farnesyl thiosalicyclic acid, reference compound]
growth inhibition (NF1−/− MEFs [1]; FTS alone (zero compound 1)): 33%±1.6% | decrease in stress fiber formation (NF1−/− MEFs [2]; FTS alone): 20%±5.6%
